Counter-ions that a name gives are not always drawn.
Tests used:
NLRP3 = NLRP3 (Homo sapiens, UniProt Q96P20); assay: THP-1 cells pyroptosis assay; format: cell-based; design: Seed THP-1 cells (25,000 cells/well) containing 1.0 μg/ml LPS; host or cells: THP-1 cells, LPS-primed, nigericin-stimulated; settings: THP-1 cells, 1.0 μg/ml LPS, compound 3 hrs, nigericin 5 μM 1 hr, resazurin readout; read-out: THP IC50
Excerpt: NLRP and Pyroptosis It is well established that the activation of NLRP3 leads to cell pyroptosis and this feature plays an important part in the manifestation of clinical disease (Yan-gang Liu et al., Cell Death &Disease, 2017, 8(2), e2579; Alexander Wree et al., Hepatology, 2014, 59(3), 898-910; Alex Baldwin et al., Journal of Medicinal Chemistry, 2016, 59(5), 1691-171; Ema Ozaki et al., Journal of Inflammation Research, 2015, 8, 15-27; Zhen Xie & Gang Zhao, Neuroimmunology Neuroinflammation, 2014, 1(2), 60-65; Mattia Cocco et al., Journal of Medicinal Chemistry, 2014, 57(24), 10366-10382; T. Satoh et al., Cell Death &Disease, 2013, 4, e644). Therefore, it is anticipated that inhibitors of NLRP3 will block pyroptosis, as well as the release of pro-inflammatory cytokines (e.g. […]) from the cell. THP-1 Cells: Culture and Preparation THP-1 cells (ATCC #TIB-202) were grown in RPMI containing L-glutamine (Gibco #11835) supplemented with imM sodium pyruvate (Sigma #S8636) and penicillin (100 units/ml)/streptomycin (0.1 mg/ml) (Sigma #P4333) in 10% Fetal Bovine Serum (FBS) (Sigma #Fo804). The cells were routinely passaged and grown to confluency (˜10^6 cells/ml). On the day of the experiment, THP-1 cells were harvested and resuspended into RPMI medium (without FBS). The cells were then counted and viability (>90%) checked by Trypan blue (Sigma #T8154). Appropriate dilutions were made to give a concentration of 625,000 cells/ml. To this diluted cell solution was added LPS (Sigma #L4524) to give a […] Final Assay Concentration (FAC). 40 μl of the final preparation was aliquoted into each well of a 96-well plate. The plate thus prepared was used for compound screening. THP-1 Cells Pyroptosis Assay The following method step-by-step assay was followed for compound screening. • 1. Seed THP-1 cells (25,000 cells/well) containing 1.0 μg/ml LPS in 40 μl of RPMI medium (without FBS) in 96-well, black walled, clear bottom cell culture plates coated with poly-D-lysine (VWR #734-0317) • 2. Add […] compound (8 points half-log dilution, with 10 μM top dose) or vehicle (DMSO 0.1% FAC) to the appropriate wells • 3. […] Add 5 μl nigericin (Sigma #N7143) (FAC 5 μM) to all wells • 5. […] At the end of the incubation period, spin plates at 300 xg for 3 mins and remove supernatant • 7. Then add 50 μl of resazurin (Sigma #R7017) (FAC 100μ M resazurin in RPMI medium without FBS) and incubate plates for a further 1-2 hrs at 37° C. and 5% CO2 • 8. Plates were read in an Envision reader at Ex 560 nm and Em 590 nm • 9. IC50 data is fitted to a non-linear regression equation (log inhibitor vs response-variable slope 4-parameters) [table]

[1] = Pharmacokinetic parameters in male Sprague Dawley rats (intravenous and oral administration); format: in vivo; settings: rat plasma, dose per compound (mg/kg)
Procedure: Pharmacokinetic parameters were determined in male Sprague Dawley rats (Charles River, UK, 250-350 g; or Vital River Laboratory Animal Technology Co Ltd, Beijing, China, 7-9 weeks old). Animals were individually housed during the study and maintained under a 12 h light/dark cycle. Animals had free access to food and water except that some orally dosed animals were food deprived overnight prior to the study.
For intravenous administration, compounds were formulated as a solution in water or DMSO:PBS [10:90] in 2 mL/kg dosing volume and administered via tail vein. For oral administration, compounds were formulated as a solution in water or DMSO:water [10:90] in 5 mL/kg dosing volume and administered orally.
Serial blood samples (about 120-300 μL) were taken from each animal at each of 8 time-points post dose (0.083, 0.25, 0.5, 1, 2, 4, 8 and 24 h) or at each of 12 time-points post dose (0.03, 0.1, 0.17, 0.25, 0.5, 1, 2, 4, 6, 8,12 and 24 h) or pre-dose and at each of 9 time-points post dose (0.25, 0.5, 1, 2, 4, 6, 8, 12 and 24 h). Samples were held on ice for no longer than 30 minutes before centrifugation (10,000 rpm (8,385 g) for 3 minutes; or 5,696 rpm (3,000 g) for 15 minutes) for plasma generation. Plasma was frozen on dry ice prior to bioanalysis. PK parameters were generated from LC-MS/MS data using Dotmatics or Phoenix WinNonlin 6.3 software.

NLRP3, sequence (Q96P20 whole entry): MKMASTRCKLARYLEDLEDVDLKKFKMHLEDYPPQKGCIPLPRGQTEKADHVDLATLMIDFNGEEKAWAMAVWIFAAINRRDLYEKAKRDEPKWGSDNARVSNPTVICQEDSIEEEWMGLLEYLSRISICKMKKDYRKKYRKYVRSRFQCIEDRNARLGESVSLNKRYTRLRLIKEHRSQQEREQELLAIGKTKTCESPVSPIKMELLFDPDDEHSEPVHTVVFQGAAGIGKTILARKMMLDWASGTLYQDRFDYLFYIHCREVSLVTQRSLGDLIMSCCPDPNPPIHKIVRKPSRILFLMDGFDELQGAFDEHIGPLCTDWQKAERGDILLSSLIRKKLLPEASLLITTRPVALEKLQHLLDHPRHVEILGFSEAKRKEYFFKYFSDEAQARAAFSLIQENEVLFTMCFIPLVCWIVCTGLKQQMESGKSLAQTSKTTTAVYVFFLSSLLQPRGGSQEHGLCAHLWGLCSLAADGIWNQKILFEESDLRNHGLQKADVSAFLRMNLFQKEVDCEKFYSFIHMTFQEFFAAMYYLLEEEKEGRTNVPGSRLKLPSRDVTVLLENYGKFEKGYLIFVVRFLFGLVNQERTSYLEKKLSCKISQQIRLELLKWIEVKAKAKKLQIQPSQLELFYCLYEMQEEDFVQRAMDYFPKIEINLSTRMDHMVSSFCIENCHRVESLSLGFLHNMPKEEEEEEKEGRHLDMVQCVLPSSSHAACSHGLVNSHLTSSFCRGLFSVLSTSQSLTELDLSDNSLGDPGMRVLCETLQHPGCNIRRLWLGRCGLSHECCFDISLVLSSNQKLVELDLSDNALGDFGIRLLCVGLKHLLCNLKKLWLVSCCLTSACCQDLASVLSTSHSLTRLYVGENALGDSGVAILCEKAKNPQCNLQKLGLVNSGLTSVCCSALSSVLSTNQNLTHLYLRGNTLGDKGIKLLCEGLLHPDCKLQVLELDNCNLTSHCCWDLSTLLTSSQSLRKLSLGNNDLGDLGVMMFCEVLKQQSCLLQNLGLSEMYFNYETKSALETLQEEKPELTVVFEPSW

| Compound | IC50 (NLRP3) | AUC ([1]; intravenous administration) | Cl ([1]; intravenous administration) | T1/2 ([1]; intravenous administration) | Vdss ([1]; intravenous administration) | further results |
| --- | --- | --- | --- | --- | --- | --- |
| CC(c1cc(S(=O)(=O)NC(=O)Nc2c3c(cc4c2CCC4)CCC3)nn1C)N1CCC1 (single isomer, unassigned) [Example 46, 5-(1-(Azetidin-1-yl)ethyl)-N-((1,2,3,5,6,7-hexahydro-s-indacen-4-yl)carbamoyl)-1-methyl-1H-pyrazole-3-sulfonamide, sodium salt] | < 0.16 µM |  |  |  |  |  |
| CC(c1cc(S(=O)(=O)NC(=O)Nc2c3c(cc4c2CCC4)CCC3)nn1C)N1CCC1 (single isomer, unassigned) [Example 47, 5-(1-(Azetidin-1-yl)ethyl)-N-((1,2,3,5,6,7-hexahydro-s-indacen-4-yl)carbamoyl)-1-methyl-1H-pyrazole-3-sulfonamide, sodium salt] | < 0.16 µM |  |  |  |  |  |
| CC(c1cc(S(=O)(=O)NC(=O)Nc2c3c(cc4c2CCC4)CCC3)nn1C)N(C)C (single isomer, unassigned; enantiomer 2) [Example 90, 5-(1-(Dimethylamino)ethyl)-N-((1,2,3,5,6,7-hexahydro-s-indacen-4-yl)carbamoyl)-1-methyl-1H-pyrazole-3-sulfonamide, Enantiomer 2] |  |  |  |  |  | CL/F ([1]; male, Sprague Dawley, oral administration): 6 mL/min/kg; Tmax ([1]; male, Sprague Dawley, oral administration, read-out: Tmax): 0.5 h; AUC ([1]; oral administration): 11115.9 ng·h/mL; Cmax ([1]; oral administration): 5665.0 ng/mL; T1/2 ([1]; oral administration): 1.1 h |
| CC(=O)N1CC(n2ccc(S(=O)(=O)NC(=O)Nc3c4c(cc5c3CCC5)CCC4)n2)C1 [Example 4, 1-(1-Acetylazetidin-3-yl)-N-((1,2,3,5,6,7-hexahydro-s-indacen-4-yl)carbamoyl)-1H-pyrazole-3-sulfonamide] | < 2.56 µM |  |  |  |  |  |
| CN1CCn2nc(S(=O)(=O)NC(=O)Nc3c4c(cc5c3CCC5)CCC4)cc2C1=O [Example 5, N-((1,2,3,5,6,7-Hexahydro-s-indacen-4-yl)carbamoyl)-5-methyl-4-oxo-4,5,6,7-tetrahydropyrazolo[1,5-a]pyrazine-2-sulfonamide, sodium salt] | < 10 µM |  |  |  |  |  |
| CC(C)c1cc(F)cc(C(C)C)c1NC(=O)NS(=O)(=O)c1ccn(CCN(C)C)n1 [Example 16, 1-(2-(Dimethylamino)ethyl)-N-((4-fluoro-2,6-diisopropyl-phenyl)carbamoyl)-1H-pyrazole-3-sulfonamide] | < 10 µM |  |  |  |  |  |
| CCn1nc(S(=O)(=O)NC(=O)Nc2c(-c3ccnc(OC)c3)ccc3c2CCC3)cc1CN(C)C [Example 37, 5-((Dimethylamino)methyl)-1-ethyl-N-((5-(2-methoxypyridin-4-yl)-2,3-dihydro-1H-inden-4-yl)carbamoyl)-1H-pyrazole-3-sulfonamide] |  | 2710.4 ng·h/mL | 10.5 mL/min/kg | 3.8 h | 1.23 L/kg |  |
| CC(C)c1cc(F)cc(C2CCOCC2)c1NC(=O)NS(=O)(=O)c1cc(C(=O)N(C)C)n(C)n1 [Example 133, 3-(N-((4-Fluoro-2-isopropyl-6-(tetrahydro-2H-pyran-4-yl)phenyl)carbamoyl)sulfamoyl)-N,N,1-trimethyl-1H-pyrazole-5-carboxamide, sodium salt] |  | 182.5 ng·h/mL | 91.3 mL/min/kg | 2.3 h | 2.72 L/kg |  |
| CC(C)c1cc(F)cc(-c2cnn(C)c2)c1NC(=O)NS(=O)(=O)c1cc(C(=O)N(C)C)n(C)n1 [Example 135, 3-(N-((4-Fluoro-2-isopropyl-6-(1-methyl-1H-pyrazol-4-yl)phenyl)carbamoyl)sulfamoyl)-N,N,1-trimethyl-1H-pyrazole-5-carboxamide, sodium salt] |  | 661.2 ng·h/mL | 25.2 mL/min/kg | 12.1 h | 3.03 L/kg |  |
| CC(C)c1cc(Cl)cc(C(C)C)c1NC(=O)NS(=O)(=O)c1cc(C(=O)N(C)C)n(C)n1 [Example 168, 3-(N-((4-Chloro-2,6-diisopropylphenyl)carbamoyl)sulfamoyl)-N,N,1-trimethyl-1H-pyrazole-5-carboxamide] |  | 353.3 ng·h/mL | 160.9 mL/min/kg | 1.3 h | 10.55 L/kg |  |

Now from value to molecule, other results behind:

| IC50 (NLRP3) | AUC ([1]; intravenous administration) | Cl ([1]; intravenous administration) | T1/2 ([1]; intravenous administration) | Vdss ([1]; intravenous administration) | Compound | further results |
| --- | --- | --- | --- | --- | --- | --- |
|  | 259.1 ng·h/mL | 65.6 mL/min/kg | 0.5 h | 0.98 L/kg | Cc1cc(-c2cc(F)cc(C(C)C)c2NC(=O)NS(=O)(=O)c2cc(CN(C)C)n(C)n2)n(C)n1 [Example 60, N-((2-(1,3-Dimethyl-1H-pyrazol-5-yl)-4-fluoro-6-isopropylphenyl)carbamoyl)-5-((dimethylamino)methyl)-1-methyl-1H-pyrazole-3-sulfonamide] |  |
|  | 259.0 ng·h/mL | 64.9 mL/min/kg | 0.5 h | 0.75 L/kg | CC(C)c1cc(F)cc(-c2cccnc2)c1NC(=O)NS(=O)(=O)c1cc(CN(C)C)n(C)n1 [Example 61, 5-((Dimethylamino)methyl)-N-((4-fluoro-2-isopropyl-6-(pyridin-3-yl)phenyl)carbamoyl)-1-methyl-1H-pyrazole-3-sulfonamide] |  |
|  | 375.4 ng·h/mL | 51.5 mL/min/kg | 1.2 h | 1.14 L/kg | CC(C)c1cc(F)cc(-c2cccc(C#N)c2)c1NC(=O)NS(=O)(=O)c1cc(CN(C)C)n(C)n1 [Example 66, N-((3′-Cyano-5-fluoro-3-isopropyl-[1,1′-biphenyl]-2-yl)carbamoyl)-5-((dimethylamino)methyl)-1-methyl-1H-pyrazole-3-sulfonamide] |  |
|  | 247.8 ng·h/mL | 67.2 mL/min/kg | 0.3 h | 1.32 L/kg | COc1cc(-c2cc(F)cc(C(C)C)c2NC(=O)NS(=O)(=O)c2cc(CN(C)C)n(C(C)C)n2)ccn1 [Example 67, 5-((Dimethylamino)methyl)-N-((4-fluoro-2-isopropyl-6-(2-methoxypyridin-4-yl)phenyl)carbamoyl)-1-isopropyl-1H-pyrazole-3-sulfonamide] |  |
|  | 356.0 ng·h/mL | 47.6 mL/min/kg | 0.5 h | 0.8 L/kg | COc1cc(-c2cc(F)cc(C(C)C)c2NC(=O)NS(=O)(=O)c2cc(CN(C)C)n(C)n2)ccn1 [Example 68, 5-((Dimethylamino)methyl)-N-((4-fluoro-2-isopropyl-6-(2-methoxypyridin-4-yl)phenyl)carbamoyl)-1-methyl-1H-pyrazole-3-sulfonamide] |  |
|  | 274.4 ng·h/mL | 60.7 mL/min/kg | 6.3 h | 3.95 L/kg | CC(C)c1cc(F)cc(-c2cccnc2)c1NC(=O)NS(=O)(=O)c1cc(C(=O)N(C)C)n(C)n1 [Example 141, 3-(N-((4-Fluoro-2-isopropyl-6-(pyridin-3-yl)phenyl)carbamoyl)sulfamoyl)-N,N,1-trimethyl-1H-pyrazole-5-carboxamide, sodium salt] |  |

Source: US11613542B2, “Sulfonylureas and sulfonylthioureas as NLRP3 inhibitors” (Inflazome Limited, priority 2017, dated 2023)
